Where a SMILES comes first, the peptide text is derived from it.
Columns and labels:
[1] = tested on: Human embryonic kidney cells (HEK); test: Mammalian cell viability assay (trypan blue exclusion), Example 2; format: cell-based; settings: 80-160 μM, 2 h at 37° C.
Description: (§1) Mammalian cell viability and hemolysis assays. Human embryonic kidney cells (HEK) (ATCC CRL-1573) and LNCaP prostate cancer cells (ATCC CRL-1740) were utilized for cell viability assays. Human embryonic kidney cells were cultured in Dulbecco's Modified Eagles Medium, high glucose (Thermo Scientific, cat #SH30243.01) with 10% fetal bovine serum at 37° C. and 5% CO2. Prostate cancer cells were cultured in RPM-1640 medium (Invitrogen, cat #A10491-01) with 10% fetal bovine serum at 37° C. and 5% CO2. In both cases, assays were performed by aliquoting cells into 96 well plates at approximately 60% confluency and allowing the cells to adhere for two hours. Cells were then incubated with serial dilutions of SHP-1, or the relevant control, in the corresponding media for two hours at 37° C. Cell viability was determined by the ability of live cells to exclude trypan blue. The cells were incubated with 0.1% trypan blue for 10 minutes and examined microscopically for cytoplasmic staining. The potential for SHP-1 to induce hemolysis was assayed by monitoring hemoglobin (Hb) release from freshly collected human erythrocytes that had been washed and incubated with SHP-1 in PBS. The Hb concentration of the supernatant was determined by the absorbance at 412 nm and compared to 100% hemolysis acquired by hypotonic lysis. […]

[2] = not told
Description: Calcein release assays. […] Briefly, liposomes were diluted 1:1000 into 50 mM Tris, pH 7.0 and calcein fluorescence was monitored at 513 nm when excited at 484 nm. The percent calcein release was calculated relative to the 100% fluorescence intensity, achieved by the addition of 0.01% Triton X-100.

[3] = tested on: LNCaP prostate cancer cells; test: Mammalian cell viability assay (trypan blue exclusion), Example 2; format: cell-based, human; settings: 80-160 μM, 2 h at 37° C.
Description: as §1

BSF T. b. brucei [4] = test: Flow cytometry binding of FITC-labeled SHP; format: cell-based, Trypanosoma brucei brucei; settings: 8 μM FITC-labeled peptide
Description: Flow Cytometry. Peptide binding to BSF T. b. brucei was monitored by flow cytometry. Binding assays were performed with 3×10^6 cells/ml in HMI 9 plus 10% fetal bovine serum at 25° C. FITC-labeled SHP-1 or SHP-3 was added to a final concentration of 8 μM and 50,000 cells were immediately counted on a CyAn ADP flow cytometer (Dako). Data were analyzed with FlowJo software (TreeStar Inc.).

[5] = tested on: plasma membrane of live BSF T. b. brucei; test: Anisotropy assays with DPH and TMA-DPH, Example 4; format: cell-based, Trypanosoma brucei brucei; settings: 37° C.
Description: Anisotropy Assays. The plasma membrane rigidity of live T. b. brucei was determined by measuring the fluorescence depolarization of diphenyl-1,3,5-hexatriene p-toluenesulfonate (DPH) or 1-(4-trimethylammoniumphenyl)-6-diphenyl-1,3,5-hexatriene p-toluenesulfonate (TMA-DPH; Invitrogen T204). Cells were washed 3 times with and resuspended in PBS at a density of 3×10^6 cells/ml. The anisotropic probes were added to a final concentration of […] and allowed to intercalate into the cell membrane for one hour in the dark. Anisotropic values were acquired via the software function of a PerkinElmer Life Sciences LS55 spectrofluorometer. Samples were excited at 358 nm, and emission was read at 430 nm, both with 10-nm slit widths. Temperature was maintained at 37° C. by means of the PerkinElmer LS55 Biokinetics accessory. Data were corrected for light scattering with an unlabeled sample of cells, and anisotropy was calculated according to the equation r=(IVV−GIVH)/(IVV+2GIVH), where r is the anisotropy value, IVV is the emission intensity acquired with the excitation- and emission-polarizing filters set vertically, G is the instrument correction factor, and IVH is the emission intensity acquired with the excitation-polarizing filter set vertically and the emission-polarizing filter set horizontally. All assays were conducted at 37° C. […]

BSF T. b. brucei [6] = test: Trypanosome motility by video microscopy, Example 4; format: cell-based, Trypanosoma brucei brucei; settings: 40 μM peptide, 37° C.
Description: Trypanosome motility. All images and videos were acquired with an Axio Observer Z1 equipped with an AxioCam MRm controlled by AxioVision 4.6 software. Videos were acquired with live cells at a density of 1×10^7 cells/ml in HMI 9 media with 10% fetal bovine serum, incubated with 40 µM SHP-1 at 37° C. Videos were recorded at magnification 63× with 50-ms acquisition times. The motility of BSF trypanosomes was scored visually from video playback of trypanosomes scanned throughout 10 μl aliquots. Data is shown as the average of triplicate trials with standard deviations.

BSF T. b. brucei [7] = test: Trypanosome killing assay, Example 4; format: cell-based, Trypanosoma brucei brucei; settings: two hour killing assay, 37° C.
Description: Trypanosome Killing Assays. Light microscopy based trypanosome killing assays were performed as previously described in detail (Harrington et al., 2010, J Biol Chem; 285(37):28659-66; Widener et al., 2007, PLoS Pathog; 3(9):1250-61; Shiflett et al., 2007, J Eukaryot Microbiol; 54(1):18-21; and Hajduk et al., 1989, J Biol Chem; 264(9):5210-7). Metacyclic T. b. brucei TREU 667 were obtained from dissection of the salivary glands of infected tsetse flies. Newly hatched Glossina morsitans morsitans (24-48 hours post eclosion) were fed defibrinated horse blood containing 2×10^6 ml^−1 trypanosomes and maintained at 25° C. in 75% relative humidity and fed maintenance blood meals three times per week. Following day 20-30, flies were harvested and salivary glands were dissected out and washed in HMI 9 media containing 10% fetal bovine serum. Metacyclic cells were collected via centrifugation and maintained in HMI 9 media with 10% fetal bovine serum at 37° C. in 5% CO2 until use. Killing assays were conducted with 1×10^4 cells/ml in HMI 9 media containing 10% fetal bovine serum. Trypanosoma vivax and T. congolense were grown from stabilites in donor ICR mouse (Harlan, United Kingdom). Parasites were harvested from mice by terminal exsanguination and passage of infected blood through a small anion exchange column. Cells were maintained in HMI 9 with 20% goat serum at 37° C. in 5% CO2 until use. Killing assays were performed with 1×10^7 cells/ml in HMI 9 media with either 20% goat serum, in the case of T. vivax and T congolense, and 10% fetal bovine serum, for T. b. brucei. Cells were incubated at 37° C. for 2 hours and dead parasites were scored visually. All were conducted in at least duplicate, and data points are the averages with standard deviations.

| Molecule | cell death of HEK cells (morphology, trypan blue exclusion) [1] | permeabilization of homogenous symmetric saturated PC liposomes [2] | permeabilization of symmetric 15:0 PC or DPPC liposomes above Tm [2] | cell death of LNCaP cells (morphology, trypan blue exclusion) [3] | binding to BSF T. brucei (BSF T. b. brucei [4]) | rigidity of the interfacial region of the plasma membrane (TMA-DPH) [5] | motility phenotype (hyperactivation, constriction) (BSF T. b. brucei [6]) | killing of BSF T. brucei (trypanocidal activity) (BSF T. b. brucei [7]) |
| --- | --- | --- | --- | --- | --- | --- | --- | --- |
| CC[C@H](C)[C@H](NC(=O)[C@@H](NC(=O)[C@H](C)NC(=O)CNC(=O)[C@H](CC(C)C)NC(=O)[C@H](CC(=O)O)NC(=O)[C@@H](N)CO)C(C)C)C(=O)N[C@@H](CO)C(=O)N[C@@H](CC(C)C)C(=O)N[C@@H](CC(C)C)C(=O)N[C@@H](CC(C)C)C(=O)N[C@@H](Cc1c[nH]c2ccccc12)C(=O)NCC(=O)N[C@@H](CCCNC(=N)N)C(=O)N[C@@H](CCC(N)=O)C(=O)N[C@@H](CC(C)C)C(=O)N[C@@H](Cc1ccccc1)C(=O)N[C@@H](C)C(=O)O [SHP-1, SDLGAVISLLLWGRQLFA] (H-SDLGAVISLLLWGRQLFA-OH; N-terminus and C-terminus assumed) | did not result in cell death | not permeabilized | resulted in sensitivity to permeabilization | did not result in cell death | – | – | – | – |
| FHQIWAALLYFYGIILNSIY (amino acid sequence of small hydrophobic peptide -3 (SHP-3)) [Small hydrophobic peptide 3, derived from an apolipoprotein] | – | – | – | – | binding to BSF T. brucei | increased the rigidity of the interfacial region of the plasma membrane | does cause initial hyperactivation of BSF T. b. brucei, however subsequent constriction of motility does not occur | no killing was seen |
